Results on 2 compounds are retold here after US4448783A, “Substituted pyrazoline, and its use in treatment of gastro-intestinal disturbances” (Burroughs Wellcome Co., priority 1982, dated 1984).

This test concerns response of the rabbit colon in vitro to bradykinin. The experiment in a line: Inhibition of the bradykinin response of rabbit colon mucosa in vitro (transepithelial potential difference and short circuit current, Ussing chambers). It counts as cell-based, New Zealand white male rabbits. The following applies: Oryctolagus cuniculus, 0.5 h, incubated 30 min prior to bradykinin (1×10^-6 M), read-out: ED50 (the source's name). The text has this: Measurement of transepithelial potential difference (PD) and short circuit current (Isc)
New Zealand white male rabbits (2-3 kg) were fed standard rabbit chow and water ad lib. Rabbits were killed by cervical dislocation, and the distal colon or ileum removed rapidly, opened along its mesenteric border, and rinsed clean of luminal contents with cold Ringer's solution containing, in mmol/liter NaCl, 114; KCl, 5; NaH2 PO4, 0.3; CaCl2, 1.25; MgCl2, 1.1; and NaHCO3, 25 (standard Ringer). Before use, tissues were maintained in ice-cold Ringer with 95% O2 /5% CO2. The standard ringer solution also contained captopril (5×10^-6 M) to inhibit bradykinin metabolism.
The serosa and two muscle layers were removed by placing a 10 cm strip of ileum, serosa up, on a Lucite plate, making a transverse cut through both external muscle layers with a razor blade, and stripping off the layers longitudinally.
Transepithelial electrical potential difference (PD), total conductance (Gt), and short circuit current (Isc) were measured as described by M. Field et al (A M J. Physiol, 220 1388-1396). Six pieces of mucosa were mounted in Ussing chambers (1.12 cm^2 cross-sectional area), and bathed with 8 ml of standard Ringer on each side. Solutions were circulated by gas lift and maintained at 37° C. in water jacketed reservoirs. […]

pIC50: −log10 of the molar value.

Regarding `CNC1=NN(c2cccc(C(F)(F)F)c2)CC1` [R^1 CH3, 3-methylamino-1-(3-trifluoromethylphenyl)-2-pyrazoline], the pIC50 was 4.30. Turning to `NC1=NN(c2cccc(C(F)(F)F)c2)CC1` [R^1 H, 3-amino-1-(3-trifluoromethylphenyl)-2-pyrazoline], the pIC50 was 3.70.
